From US9822103B2, “Inhibitors of lysine methyl transferase” (priority 2013, dated 2017)

Biological target: recombinant EZH2-641F complex (EZH2 Y641F/EED/SUZ12/RbAp48/AEBP2) (Homo sapiens (Human), UniProt Q15910, Y641F)
Test: EZH2 Histone Methyl Transferase Assay (scintillation proximity assay)
Assay type: biochemical
Conditions: 350 nM histone peptide substrate, 500 nM 3H-SAM, 3 hours room temperature
Outline: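 Radiometric SPA with EZH2 Y641F/EED/SUZ12/RbAp48/AEBP2 complex (5 nM pure or 15 nM in-house), 350 nM biotinylated K(Me2) histone peptide and 500 nM [3H]-SAM in Tris pH 9.0, 3 h at room temperature. Compounds were tested at eleven concentrations; EC50 came from non-linear regression.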

Chain of recombinant EZH2-641F complex (EZH2 Y641F/EED/SUZ12/RbAp48/AEBP2) (Q15910 whole entry Y641F): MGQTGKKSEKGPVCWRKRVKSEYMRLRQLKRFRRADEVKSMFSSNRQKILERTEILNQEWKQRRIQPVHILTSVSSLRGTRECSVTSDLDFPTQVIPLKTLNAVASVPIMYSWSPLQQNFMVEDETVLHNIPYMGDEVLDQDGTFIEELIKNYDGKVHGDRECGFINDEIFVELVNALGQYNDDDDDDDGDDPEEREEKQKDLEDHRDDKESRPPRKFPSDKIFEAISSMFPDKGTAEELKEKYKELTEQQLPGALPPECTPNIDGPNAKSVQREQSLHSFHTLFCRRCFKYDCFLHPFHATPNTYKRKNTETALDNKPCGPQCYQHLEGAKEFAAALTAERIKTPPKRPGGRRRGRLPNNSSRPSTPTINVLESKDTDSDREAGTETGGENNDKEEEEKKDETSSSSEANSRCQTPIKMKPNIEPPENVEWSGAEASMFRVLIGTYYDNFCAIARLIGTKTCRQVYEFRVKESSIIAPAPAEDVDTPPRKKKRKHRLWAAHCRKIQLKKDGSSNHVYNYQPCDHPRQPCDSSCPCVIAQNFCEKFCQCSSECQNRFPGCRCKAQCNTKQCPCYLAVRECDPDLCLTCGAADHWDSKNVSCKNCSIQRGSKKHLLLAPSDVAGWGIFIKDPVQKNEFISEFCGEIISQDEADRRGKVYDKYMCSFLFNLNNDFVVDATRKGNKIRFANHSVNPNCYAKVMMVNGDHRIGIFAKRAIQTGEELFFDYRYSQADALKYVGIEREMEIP
Chain of recombinant EZH2-641F complex (EZH2 Y641F/EED/SUZ12/RbAp48/AEBP2) (O75530 whole entry partner): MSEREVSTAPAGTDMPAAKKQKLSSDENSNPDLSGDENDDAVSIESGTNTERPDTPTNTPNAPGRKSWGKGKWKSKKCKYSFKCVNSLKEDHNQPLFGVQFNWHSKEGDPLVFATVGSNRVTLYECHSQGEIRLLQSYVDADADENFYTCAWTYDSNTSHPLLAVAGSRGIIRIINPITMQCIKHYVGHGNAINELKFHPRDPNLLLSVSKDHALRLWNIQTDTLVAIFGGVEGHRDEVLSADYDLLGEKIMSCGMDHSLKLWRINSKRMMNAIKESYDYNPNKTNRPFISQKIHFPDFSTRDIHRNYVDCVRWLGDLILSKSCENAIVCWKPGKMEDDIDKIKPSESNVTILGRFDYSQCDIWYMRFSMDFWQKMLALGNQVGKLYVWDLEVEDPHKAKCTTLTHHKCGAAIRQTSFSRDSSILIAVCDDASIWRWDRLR
Chain of recombinant EZH2-641F complex (EZH2 Y641F/EED/SUZ12/RbAp48/AEBP2) (Q15022 whole entry partner): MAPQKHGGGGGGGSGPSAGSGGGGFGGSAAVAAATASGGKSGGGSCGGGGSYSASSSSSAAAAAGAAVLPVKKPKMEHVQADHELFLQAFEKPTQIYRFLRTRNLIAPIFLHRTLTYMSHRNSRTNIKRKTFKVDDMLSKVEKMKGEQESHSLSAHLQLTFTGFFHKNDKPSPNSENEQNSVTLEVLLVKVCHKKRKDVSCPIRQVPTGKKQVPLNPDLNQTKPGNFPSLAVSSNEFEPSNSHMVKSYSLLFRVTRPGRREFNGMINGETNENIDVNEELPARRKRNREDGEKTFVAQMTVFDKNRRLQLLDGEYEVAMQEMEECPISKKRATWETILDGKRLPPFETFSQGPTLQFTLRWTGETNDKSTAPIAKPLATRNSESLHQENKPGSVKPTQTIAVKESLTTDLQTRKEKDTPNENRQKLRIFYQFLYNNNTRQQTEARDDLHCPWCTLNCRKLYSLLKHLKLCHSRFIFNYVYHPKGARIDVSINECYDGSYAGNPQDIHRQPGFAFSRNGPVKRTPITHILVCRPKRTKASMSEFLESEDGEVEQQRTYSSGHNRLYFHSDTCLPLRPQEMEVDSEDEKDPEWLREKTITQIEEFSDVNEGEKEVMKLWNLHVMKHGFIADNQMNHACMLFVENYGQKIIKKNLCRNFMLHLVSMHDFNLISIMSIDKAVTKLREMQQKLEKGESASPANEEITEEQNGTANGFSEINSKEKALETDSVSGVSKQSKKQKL
Chain of recombinant EZH2-641F complex (EZH2 Y641F/EED/SUZ12/RbAp48/AEBP2) (Q09028 whole entry partner): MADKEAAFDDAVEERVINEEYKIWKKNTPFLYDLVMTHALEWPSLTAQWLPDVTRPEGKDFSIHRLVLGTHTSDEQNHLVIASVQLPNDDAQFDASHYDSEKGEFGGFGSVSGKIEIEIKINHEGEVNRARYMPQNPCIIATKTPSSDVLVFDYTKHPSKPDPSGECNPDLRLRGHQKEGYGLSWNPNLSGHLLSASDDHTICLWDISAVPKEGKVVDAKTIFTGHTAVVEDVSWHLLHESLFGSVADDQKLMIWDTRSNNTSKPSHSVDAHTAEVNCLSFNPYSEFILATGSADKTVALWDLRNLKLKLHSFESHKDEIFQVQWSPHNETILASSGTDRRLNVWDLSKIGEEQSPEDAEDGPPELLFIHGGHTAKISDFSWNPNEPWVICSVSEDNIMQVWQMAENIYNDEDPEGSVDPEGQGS
Chain of recombinant EZH2-641F complex (EZH2 Y641F/EED/SUZ12/RbAp48/AEBP2) (Q6ZN18 whole entry partner): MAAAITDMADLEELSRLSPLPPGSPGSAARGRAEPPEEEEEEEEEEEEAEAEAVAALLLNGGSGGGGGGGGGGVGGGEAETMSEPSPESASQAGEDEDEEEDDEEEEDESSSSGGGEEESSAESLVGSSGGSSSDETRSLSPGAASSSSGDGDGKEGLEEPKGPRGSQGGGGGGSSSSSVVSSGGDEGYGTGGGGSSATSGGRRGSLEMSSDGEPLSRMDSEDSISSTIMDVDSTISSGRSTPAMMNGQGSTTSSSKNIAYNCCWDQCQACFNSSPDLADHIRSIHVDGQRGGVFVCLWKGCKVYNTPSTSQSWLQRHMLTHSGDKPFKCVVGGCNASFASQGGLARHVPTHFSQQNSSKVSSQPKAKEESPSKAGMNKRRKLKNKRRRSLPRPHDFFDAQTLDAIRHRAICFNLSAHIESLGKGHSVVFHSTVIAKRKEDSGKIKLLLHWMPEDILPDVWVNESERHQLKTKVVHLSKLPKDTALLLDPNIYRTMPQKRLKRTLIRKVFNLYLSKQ

| Structure (SMILES) | IC50 |
| --- | --- |
| CCC1(C)Cc2cc(C(=O)NCc3c(C)cc(C)[nH]c3=O)cc(-c3ccc(OC)nc3)c2O1 (stereo not drawn) [Example 61, N-((4,6-Dimethyl-2-oxo-1,2-dihydropyridin-3-yl)methyl)-2-ethyl-7-(6-methoxypyridin-3-yl)-2-methyl-2,3-dihydrobenzofuran-5-carboxamide] | > 1 µM |
| CCC1(C)Cc2cc(C(=O)NCc3c(C)cc(C)[nH]c3=O)cc(-c3ccc(N4CCNCC4)nc3)c2O1 (stereo not drawn) [Example 62, N-((4,6-Dimethyl-2-oxo-1,2-dihydropyridin-3-yl)methyl)-2-ethyl-2-methyl-7-(6-(piperazin-1-yl)pyridin-3-yl)-2,3-dihydrobenzofuran-5-carboxamide] | < 0.5 µM |
| CCC1(C)Cc2cc(C(=O)NCc3c(C)cc(C)[nH]c3=O)cc(-c3ccc(C)cc3)c2O1 (stereo not drawn) [Example 63, N-((4,6-Dimethyl-2-oxo-1,2-dihydropyridin-3-yl)methyl)-2-ethyl-2-methyl-7-(p-tolyl)-2,3-dihydrobenzofuran-5-carboxamide] | > 1 µM |
| Cc1cc(C)c(CNC(=O)c2cc(Br)c3c(c2)CC2(CCCC2)O3)c(=O)[nH]1 [Example 70, 7-Bromo-N-((4,6-dimethyl-2-oxo-1,2-dihydropyridin-3-yl)methyl)-3H-spiro[benzofuran-2,1′-cyclopentane]-5-carboxamide] | > 1 µM |
| COc1ccc(-c2cc(C(=O)NCc3c(C)cc(C)[nH]c3=O)cc3c2OC2(CCCC2)C3)cn1 [Example 71, N-((4,6-Dimethyl-2-oxo-1,2-dihydropyridin-3-yl)methyl)-7-(6-methoxypyridin-3-yl)-3H-spiro[benzofuran-2,1′-cyclopentane]-5-carboxamide] | > 1 µM |
| Cc1cc(C)c(CNC(=O)c2cc3c(c(-c4ccc(N5CCNCC5)nc4)c2)OC2(CCCC2)C3)c(=O)[nH]1 [Example 72, N-((4,6-Dimethyl-2-oxo-1,2-dihydropyridin-3-yl)methyl)-7-(6-(piperazin-1-yl)pyridin-3-yl)-3H-spiro[benzofuran-2,1′-cyclopentane]-5-carboxamide] | < 0.5 µM |
| Cc1cc(C)c(CNC(=O)c2cc3c(c(-c4cnc(N5CCN(C(=O)OC(C)(C)C)CC5)nc4)c2)OC2(CCCC2)C3)c(=O)[nH]1 [Example 73, tert-Butyl 4-(5-(5-(((4,6-dimethyl-2-oxo-1,2-dihydropyridin-3-yl)methyl)carbamoyl)-3H-spiro[benzofuran-2,1′-cyclopentan]-7-yl)pyrimidin-2-yl)piperazine-1-carboxylate] | > 1 µM |
| Cc1cc(C)c(CNC(=O)c2cc3c(c(-c4ccc(CN5CCCCC5)cc4)c2)OC2(CCCC2)C3)c(=O)[nH]1 [Example 74, N-((4,6-Dimethyl-2-oxo-1,2-dihydropyridin-3-yl)methyl)-7-(4-(piperidin-1-ylmethyl)phenyl)-3H-spiro[benzofuran-2,1′-cyclopentane]-5-carboxamide] | > 1 µM |
| Cc1cc(C)c(CNC(=O)c2cc(Br)c3c(c2)C2(CCCC2)CO3)c(=O)[nH]1 [Example 75, 7-Bromo-N-((4,6-dimethyl-2-oxo-1,2-dihydropyridin-3-yl)methyl)-2H-spiro[benzofuran-3,1′-cyclopentane]-5-carboxamide] | > 1 µM |
| COc1ccc(-c2cc(C(=O)NCc3c(C)cc(C)[nH]c3=O)cc3c2OCC32CCCC2)cn1 [Example 76, N-((4,6-Dimethyl-2-oxo-1,2-dihydropyridin-3-yl)methyl)-7-(6-methoxypyridin-3-yl)-2H-spiro[benzofuran-3,1′-cyclopentane]-5-carboxamide] | > 1 µM |
| Cc1cc(C)c(CNC(=O)c2cc(-c3ccc(N4CCNCC4)nc3)c3c(c2)C2(CCCC2)CO3)c(=O)[nH]1 [Example 77, N-((4,6-Dimethyl-2-oxo-1,2-dihydropyridin-3-yl)methyl)-7-(6-(piperazin-1-yl)pyridin-3-yl)-2H-spiro[benzofuran-3,1′-cyclopentane]-5-carboxamide] | > 1 µM |
| Cc1cc(C)c(CNC(=O)c2cc(-c3ccc(CN4CCCCC4)cc3)c3c(c2)C2(CCCC2)CO3)c(=O)[nH]1 [Example 78, N-((4,6-Dimethyl-2-oxo-1,2-dihydropyridin-3-yl)methyl)-7-(4-(piperidin-1-ylmethyl)phenyl)-2H-spiro[benzofuran-3,1′-cyclopentane]-5-carboxamide] | > 1 µM |
| Cc1cc(C)c(CNC(=O)c2cc(Br)c3c(c2)CC(C(C)C)O3)c(=O)[nH]1 (stereo not drawn) [Example 79, 7-Bromo-N-((4,6-dimethyl-2-oxo-1,2-dihydropyridin-3-yl)methyl)-2-isopropyl-2,3-dihydrobenzofuran-5-carboxamide] | > 1 µM |
| Cc1cc(C)c(CNC(=O)c2cc3c(c(-c4ccc(N5CCNCC5)nc4)c2)OC(C(C)C)C3)c(=O)[nH]1 (stereo not drawn) [Example 80, N-((4,6-Dimethyl-2-oxo-1,2-dihydropyridin-3-yl)methyl)-2-isopropyl-7-(6-(piperazin-1-yl)pyridin-3-yl)-2,3-dihydrobenzofuran-5-carboxamide] | > 1 µM |
| CC1=C(C)Cc2cc(C(=O)NCc3c(C)cc(C)[nH]c3=O)cc(Br)c2OC1 [Example 81, 9-Bromo-N-((4,6-dimethyl-2-oxo-1,2-dihydropyridin-3-yl)methyl)-3,4-dimethyl-2,5-dihydrobenzo[b]oxepine-7-carboxamide] | > 1 µM |
| C=C(C)C1(C)Cc2cc(C(=O)NCc3c(C)cc(C)[nH]c3=O)cc(Br)c2O1 (stereo not drawn) [Example 82, 7-Bromo-N-((4,6-dimethyl-2-oxo-1,2-dihydropyridin-3-yl)methyl)-2-methyl-2-(prop-1-en-2-yl)-2,3-dihydrobenzofuran-5-carboxamide] | > 1 µM |
| C=C(C)C1(C)Cc2cc(C(=O)NCc3c(C)cc(C)[nH]c3=O)cc(-c3ccc(OC)nc3)c2O1 (stereo not drawn) [Example 83, N-((4,6-dimethyl-2-oxo-1,2-dihydropyridin-3-yl)methyl)-7-(6-methoxypyridin-3-yl)-2-methyl-2-(prop-1-en-2-yl)-2,3-dihydrobenzofuran-5-carboxamide] | 0.5 to 1 µM |
| CCCc1cc(C)[nH]c(=O)c1CNC(=O)c1cc(Br)c2c(c1)CC(C)=C(C)CO2 [Example 86, 9-Bromo-3,4-dimethyl-N-((6-methyl-2-oxo-4-propyl-1,2-dihydropyridin-3-yl)methyl)-2,5-dihydrobenzo[b]oxepine-7-carboxamide] | > 1 µM |
| C=CC1COc2cc(C(=O)NCc3c(C)cc(C)[nH]c3=O)cc(Br)c2O1 (stereo not drawn) [Example 90, 8-Bromo-N-((4,6-dimethyl-2-oxo-1,2-dihydropyridin-3-yl)methyl)-2-vinyl-2,3-dihydrobenzo[b][1,4]dioxine-6-carboxamide] | > 1 µM |
| CCC1COc2cc(C(=O)NCc3c(C)cc(C)[nH]c3=O)cc(Br)c2O1 (stereo not drawn) [Example 91, 8-Bromo-N-((4,6-dimethyl-2-oxo-1,2-dihydropyridin-3-yl)methyl)-2-ethyl-2,3-dihydrobenzo[b][1,4]dioxine-6-carboxamide] | > 1 µM |
| CCCc1cc(C)[nH]c(=O)c1CNC(=O)c1cc2c(c(-c3ccc(N4CCN(C(C)C)CC4)nc3)c1)OC(C)(C(C)C)C2 (stereo not drawn) [Example 93, 2-Isopropyl-7-(6-(4-isopropylpiperazin-1-yl)pyridin-3-yl)-2-methyl-N-((6-methyl-2-oxo-4-propyl-1,2-dihydropyridin-3-yl)methyl)-2,3-dihydrobenzofuran-5-carboxamide] | < 0.5 µM |
